What all share (type): cell-based
In test [1] the test system is Sclerotinia sclerotiorum (sensitive, wild-type). Kind of test: Activity against Sclerotinia sclerotiorum in tissue culture plate assay with mycelial plugs, wild type. The following applies: 168 h, % growth after 7 days at 18° C., read-out: Absolute IC50, wild type. How it is done:
Fungal strains used: • a) Sclerotinia sclerotiorum (sensitive, wild-type) • b) Mutants of Sclerotinia sclerotiorum
Pure cultures are grown on DOB-agar medium, (3.4 g/l YNB (Becton Dickinson), 10 g/l Ammoniumsulfat, 40 g/l Glucose) for 5-7 days at 18° C. Mycelial plugs (6 mm diame-ter) taken from the margin of the colonies are used as inoculum for the sensitivity test. 500 μl fungicide-amended DOB medium (3.4 g/l YNB (Becton Dickinson), 10 g/l Ammoniumsulfat, 40 g/l Glucose, adjusted to pH 7) are added to each well of 24-well tissue culture plates. Each well is then inoculated with a mycelial plug, with the myce-lium surface up. Two replicate wells are used for each isolate and fungicide concentration. Growth is assed after 7 days incubation at 18° C. in the dark by estimating % growth in the well. IC50-values (concentration of test compound resulting in 50% inhibition of fungal growth) were calculated from the resulting dose-response for each compound and strain.

Test [2] deals with Botrytis cinerea (sensitive, wild-type). The experiment in a line: Activity against Botrytis cinerea in the microtiter test, wild type. The note with it: 168 h, turbidity at 620 nm after 7 days, read-out: Absolute IC50, wild type. How it is done:
(§1) The active substances were formulated separately as a stock solution in dimethyl sulfoxide (DMSO) at a concentration of 10 000 ppm.
(§2) Fungal strains used: • a) Botrytis cinerea (sensitive, wild-type) • b) Various mutants of Botrytis cinerea
(§3) The spores of Botrytis cinerea were harvested with a cotton swab from an Oatmeal agar plate (50 g/l Oatmealagar (Sigma, Art.O-3506), 15 g/l agar, (Difco) and this is dipped in 3 ml of double concentrated DOB-medium (3.4 g/l YNB (Becton Dickinson), 10 g/l Ammoniumsulfat, 40 g/l Glucose, adjusted to pH 7) and the spore suspension is adjusted to a spore density of 3.2×10^4 spores/ml. The compound solutions were diluted from stock solution in (dimethylsulfoxide) DMSO in several steps with sterile deionized water before use. High test concentrations were 50 mg/L (ppm) or 31 mg/L (ppm). Compound solutions were transferred into empty microplates and filled up with an equal amount of spore suspension.
(§4) The antifungal activity was determined by measuring the turbidity of a culture in 96-well microplates in the presence of test compounds after 7 days incubation at 620 nm. A blank value for each concentration (growth media+compound, without spores) are subtracted from the spore suspension. The relative antifungal activity was calculated by comparing the effect of the test compounds with the effect of a DMSO control The results are shown in Table IV (for compounds of general formula I.A), VI (for compounds of general formula I.B), and VIII (for compounds of general formula I.C).
(§5) The absolute IC50-values (concentration of test compound resulting in 50% inhibition of fungal growth) were calculated from the resulting dose-response for each compound and strain.

For test [3], the system named is Botrytis cinerea mutant H108P. The experiment in a line: Activity against Botrytis cinerea in the microtiter test, mutant H108P. The following applies: Botrytis cinerea, MUTANTH108P, 168 h, read-out: Absolute IC50, H108P, Botrytis cinerea mutant H108P; turbidity at 620 nm after 7 days.
Excerpt: as §1
(§6) Spontaneous mutants were selected by plating out B. cinerea spores (in the range of 10^7-10^8) on DOB agar plates (3.4 g/l YNB (Becton Dickinson), 10 g/l Ammoniumsulfat, 40 g/l Glucose, 20 g/l Agar), amended with different lethal concentrations of active ingredient. After 7-14 days growing colonies were transferred to DOB agar plates, amended with the same lethal concentrations of active ingredient and then further propagated on Oatmeal agar medium (50 g/l Oatmeal agar (Sigma), 15 g/l Agar (Difco) for sensitivity testing.
as §2, §3, §4
(§7) A compound showing an IC50 (MUT) above the IC50 (WT) and showing an IC50 (MUT) to IC50 (WT) ratio being in a range above 100 is considered unsuitable (“I”) as DHODH inhibitor.
as §5

Test [4] relates to Botrytis cinerea mutant G111E. The experiment in a line: Activity against Botrytis cinerea in the microtiter test, mutant G111E. The following applies: Botrytis cinerea, MUTANTG111E, 168 h, read-out: Absolute IC50, G111E, Botrytis cinerea mutant G111E; turbidity at 620 nm after 7 days.
Excerpt: as §1, §6, §2, §3, §4, §7, §5

Test [5] relates to Botrytis cinerea mutant G111V. The experiment in a line: Activity against Botrytis cinerea in the microtiter test, mutant G111V. The note with it: Botrytis cinerea, MUTANTG111V, 168 h, read-out: Absolute IC50, G111V, Botrytis cinerea mutant G111V; turbidity at 620 nm after 7 days.
Excerpt: as §1, §6, §2, §3, §4, §7, §5

The test system of test [6] is Botrytis cinerea mutant V195F. Kind of test: Activity against Botrytis cinerea in the microtiter test, mutant V195F. The following applies: Botrytis cinerea, MUTANTV195F, 168 h, read-out: Absolute IC50, V195F, Botrytis cinerea mutant V195F; turbidity at 620 nm after 7 days.
Excerpt: as §1, §6, §2, §3, §4, §7, §5

Test [7] deals with Botrytis cinerea mutant Y208H. The experiment in a line: Activity against Botrytis cinerea in the microtiter test, mutant Y208H. The following applies: Botrytis cinerea, MUTANTY208H, 168 h, read-out: Absolute IC50, Y208H, Botrytis cinerea mutant Y208H; turbidity at 620 nm after 7 days.
Excerpt: as §1, §6, §2, §3, §4, §7, §5

Results on eleven compounds are retold here after patent US20260150841A1, “PYRIDINE COMPOUNDS FOR COMBATTING DIHYDROOROTATE-DEHYDROGENASE INHIBITOR-RESISTANT PHYTOPATHOGENIC FUNGI” (priority 2022, published 2026).

SMILES strings stand for the structures. ≈ marks a conversion by molar mass, not a printed value.

For `CN1c2c(F)cccc2C(c2cnc3c(F)cccc3c2)=NC1(C)C`, the IC50 (in general, the concentration at which inhibition is half-maximal) in test [1] was 0.03 µg/mL (≈ 0.0889 µM).
For the compound `Cc1cc(C2=NC3(CCC(C)(C)C3)Oc3ccccc32)cnc1C` (stereo not shown) [Ex 4], the IC50 in test [1] was determined as 8.45 µg/mL (≈ 26.4 µM).
`Cc1cc(C2=NC(C)(C)Oc3ccccc32)cnc1C` [Ex 6]: in test [1], the IC50 came to 0.08 µg/mL (≈ 0.3 µM).
Same read-out and setting: in the case of `CCC1(CC)N=C(c2cnc(C)c(C)c2)c2ccccc2O1` [Ex 7] it was 0.23 µg/mL (≈ 0.781 µM).
Consider `Cc1cc(C2=NC(C)(C(C)(C)C)Oc3ccccc32)cnc1C(F)F` (stereo not shown) [Ex-3], for which the IC50 is 0.19 µg/mL (≈ 0.552 µM) in test [2]; 2.54 µg/mL (≈ 7.38 µM) in test [3]; 2.81 µg/mL (≈ 8.16 µM) in test [4]; 3.17 µg/mL (≈ 9.2 µM) in test [5]; 0.75 µg/mL (≈ 2.18 µM) in test [6]; 0.893 µg/mL (≈ 2.59 µM) in test [1].
For the compound `COc1ccc2c(c1)OC(C)(C)N=C2c1cnc(C(F)F)c(C)c1` [Ex-35], the IC50 in test [2] was 0.02 µg/mL (≈ 0.0602 µM); in test [3], 0.29 µg/mL (≈ 0.873 µM); in test [4], 2.7 µg/mL (≈ 8.12 µM); in test [5], 0.72 µg/mL (≈ 2.17 µM); in test [6], 0.05 µg/mL (≈ 0.15 µM); in test [7], 2.02 µg/mL (≈ 6.08 µM). Also, the concentration for half-maximal inhibition (IC50) in test [1] was determined as 0.468 µg/mL (≈ 1.41 µM).
For the compound `CC(C)(C)C1(C)N=C(c2cnc3c(F)cccc3c2)c2ccccc2O1` (stereo not shown) [drawing 166], in test [1], the IC50 was 0.137 µg/mL (≈ 0.393 µM).
For `CC1(c2ccccc2)N=C(c2cnc3c(F)cccc3c2)c2cccc(F)c2O1` (stereo not shown) [drawing 168], in test [1], the IC50 came out at 0.154 µg/mL (≈ 0.399 µM).
For the compound `COc1ccc2c(c1)OC(C)(C)N=C2c1cnc2c(F)cccc2c1` [drawing 170], in test [1], the IC50 was determined as 0.06 µg/mL (≈ 0.178 µM).
The same measure, in the same setting: in the case of `CCN1c2c(F)cccc2C(c2cnc3c(F)cccc3c2)=NC1(C)C` [drawing 175] it was 0.03 µg/mL (≈ 0.0854 µM); in that of `CC1(C)N=C(c2cnc3c(F)cccc3c2)c2ccccc2OC1(C)C` [drawing 178], 2 µg/mL (≈ 5.73 µM).
